Measured values from US7998681B2, “Diagnosis and therapy of antibody-mediated inflammatory auto-immune disorders” (Los Angeles Biomedical Research Institute at Harbor-UCLA …, priority 2000, dated 2011).

Tests used:
Type in all cases: cell-based, human
IL-16 [1] = experiment: IL-16 ELISA of medium from treated fibroblasts, GD donors; settings: GD, limit of detection 20 pg/ml
Text: (§1) In addition to its therapeutic aspects, the present invention also relates to a diagnostic method for detecting the presence of antibody-activated fibroblasts in the patient. Applicants believe that several auto immune diseases or disorders are associated with antibody-activated fibroblasts. […] Altered levels of these chemoattractants can be detected in various biological samples in mammals, preferably humans. Levels of IL-16 and/or RANTES may be monitored in a patient, using standard techniques, as an indication of the deleterious aspects of the disease condition. Biological samples, including but not limited to serum, vitreous humor, aqueous humor, synovial fluid, and tissue, will be drawn from the patient using standard techniques. Particularly preferred are serum samples. The measurement of the IL-16 and RANTES levels may be monitored using any method possible to detect the levels of these proteins in biological samples. A preferred method of analysis is by ELISA as described in Sciaky, D. et al., J. Immunol. 164(7):3806-14, 2000. An ELISA specific for IL-16 can be used to assess the levels released by fibroblasts as described previously in Lim, K. G. et al., J. Immunol. 156(7): 2566-70, 1996. An ELISA specific for RANTES can be used according to the manufacturer's specification (BioSource Intl., Camarillo, Calif.).
(§2) The levels of IL-16 and RANTES were then assessed with specific ELISAs. The ELISA assay for IL-16 is performed essentially as discussed in Sciaky D., Brazer, W., Center, D. M., Cruikshank, W. W. and Smith, T. J.: Cultured human fibroblasts express constitutive IL-16 mRNA: Cytokine induction of active IL-16 protein synthesis through a caspase-3-dependent mechanism. J. Immunol. 164(7):3806-14, 2000). An ELISA (BioSource) for RANTES was performed according to the manufacturer's instructions.

IL-16 [2] = experiment: IL-16 ELISA of medium from treated fibroblasts, normal donors; settings: limit of detection 20 pg/ml
Text: (§3) In addition to its therapeutic aspects, the present invention also relates to a diagnostic method for detecting the presence of antibody-activated fibroblasts in the patient. Applicants believe that several auto immune diseases or disorders are associated with antibody-activated fibroblasts. Applicants have shown that increased activation of fibroblasts by auto-antibodies can be monitored by determining the levels of IL-16 and/or RANTES production in a patient. Altered levels of these chemoattractants can be detected in various biological samples in mammals, preferably humans. Levels of IL-16 and/or RANTES may be monitored in a patient, using standard techniques, as an indication of the deleterious aspects of the disease condition. Biological samples, including but not limited to serum, vitreous humor, aqueous humor, synovial fluid, and tissue, will be drawn from the patient using standard techniques. Particularly preferred are serum samples. The measurement of the IL-16 and RANTES levels may be monitored using any method possible to detect the levels of these proteins in biological samples. A preferred method of analysis is by ELISA as described in Sciaky, D. et al., J. Immunol. 164(7):3806-14, 2000. An ELISA specific for IL-16 can be used to assess the levels released by fibroblasts as described previously in Lim, K. G. et al., J. Immunol. 156(7): 2566-70, 1996. An ELISA specific for RANTES can be used according to the manufacturer's specification (BioSource Intl., Camarillo, Calif.).
as §2, with “instructions. In an analysis of over a dozen strains, TAO specific IgG elicit substantial induction of IL-16 and RANTES and in no case were normal fibroblasts so affected.” for “instructions.”

RANTES [3] = experiment: RANTES ELISA of medium from treated fibroblasts, GD donors; settings: GD, limit of detection 15 pg/ml
Text: as §1, §2

RANTES [4] = experiment: RANTES ELISA of medium from treated fibroblasts, normal donors; settings: limit of detection 15 pg/ml
Text: as §3
as §2, with “instructions. In an analysis of over a dozen strains, TAO specific IgG elicit substantial induction of IL-16 and RANTES and in no case were normal fibroblasts so affected.” for “instructions.”

[5] = system: Thy-1^+ and Thy-1^− fibroblasts; experiment: IL-8 production in Thy-1+ and Thy-1- orbital fibroblast subsets; settings: IL-1β treated
Text: FIGS. 11A-11C show differential production in TAO-derived Thy-1^+ and Thy-1^− subsets of PGE2 (11A) and IL-8 in response to IL-1β stimulation (11B), and IL-16 in response to stimulation with Graves' IgG (11C).
With regard to cytokine expression, both subsets fail to generate detectable IL-6 under basal culture conditions but synthesize high levels of the cytokine when treated with IL-1β. The magnitude of these responses is similar in the two fibroblast populations. Similarly, both subsets express low basal levels of IL-8 (FIG. 11B). When treated with IL-1β, Thy-1^− fibroblasts synthesize and release extremely high levels of IL-8 and this induction is substantially (5.5-fold) greater than that occurring in the Thy-1^+ subset.

Substance: IL-1β: pro-inflammatory cytokine used to activate fibroblasts
- IL-16 (IL-16 [1]; strain 1, Orbit): 71 ± 9 pg/mL
- IL-16 (IL-16 [1]; strain 2, Orbit): 82 ± 9 pg/mL
- IL-16 (IL-16 [1]; strain 3, Abdominal skin): 82 ± 9 pg/mL
- IL-16 (IL-16 [1]; strain 4, Orbit): 194 ± 29 pg/mL
- IL-16 (IL-16 [1]; strain 6, Neck skin): 116 ± 27 pg/mL
- IL-16 (IL-16 [1]; strain 7, Pretibial skin): 194 ± 29 pg/mL
- IL-16 (IL-16 [1]; strain 8, Pretibial skin): 79 ± 11 pg/mL
- IL-16 (IL-16 [1]; strain 9, Orbit): 218 ± 33 pg/mL
- IL-16 (IL-16 [1]; strain 10, Orbit): 246 ± 32 pg/mL
- IL-16 (IL-16 [1]; strain 11, Orbit): 94 ± 12 pg/mL
- IL-16 (IL-16 [2]; strain 12, Orbit): 56 ± 10 pg/mL
- IL-16 (IL-16 [2]; strain 14, Orbit): 68 ± 9 pg/mL
- IL-16 (IL-16 [2]; strain 15, Extremity Skin): 138 ± 15 pg/mL
- IL-16 (IL-16 [2]; strain 16, Extremity Skin): 98 ± 19 pg/mL
- RANTES (RANTES [3]; strain 1, Orbit): 84 ± 8 pg/mL
- RANTES (RANTES [3]; strain 2, Orbit): 116 ± 11 pg/mL
- RANTES (RANTES [3]; strain 3, Abdominal skin): 116 ± 11 pg/mL
- RANTES (RANTES [3]; strain 4, Orbit): 128 ± 26 pg/mL
- RANTES (RANTES [3]; strain 6, Neck skin): 253 ± 42 pg/mL
- RANTES (RANTES [3]; strain 7, Pretibial skin): 128 ± 26 pg/mL
- RANTES (RANTES [3]; strain 9, Orbit): 78 ± 21 pg/mL
- RANTES (RANTES [3]; strain 10, Orbit): 214 ± 30 pg/mL
- RANTES (RANTES [3]; strain 11, Orbit): 69 ± 6 pg/mL
- RANTES (RANTES [4]; strain 12, Orbit): 42 ± 9 pg/mL
- RANTES (RANTES [4]; strain 14, Orbit): 79 ± 11 pg/mL
- RANTES (RANTES [4]; strain 15, Extremity Skin): 173 ± 12 pg/mL
- RANTES (RANTES [4]; strain 16, Extremity Skin): 125 ± 9 pg/mL
- IL-8 induction in Thy-1^− relative to Thy-1^+ subset [5]: 5.5 fold
